Experimental data: the supplement of paper PMC13380429

What was measured:
Conditions in all cases: 72 h
[1] = test system: Calu-3; assay: cell viability relative to DMSO; higher = less toxic
[2] = test system: Caco-2; assay: as above
[3] = test system: U2OS; assay: as above
[4] = test system: Calu-3; assay: drug sensitivity score (DSS) for viability; higher = more toxic; extreme values may be limits of the assay
[5] = test system: Caco-2; assay: as above
[6] = test system: U2OS; assay: as above
[7] = test system: Calu-3; assay: relative viability EC50 (midpoint between 100% and the lowest measured viability); higher = less toxic
[8] = test system: Caco-2; assay: as above
[9] = test system: U2OS; assay: as above
[10] = test system: HepG2; assay: cell viability relative to DMSO; higher = less toxic
[11] = test system: HepG2; assay: drug sensitivity score (DSS) for viability; higher = more toxic; extreme values may be limits of the assay
[12] = test system: HepG2; assay: relative viability EC50 (midpoint between 100% and the lowest measured viability); higher = less toxic
[13] = test system: Vero E6; assay: cell viability relative to DMSO; higher = less toxic
[14] = test system: Vero E6; assay: drug sensitivity score (DSS) for viability; higher = more toxic; extreme values may be limits of the assay
[15] = test system: Vero E6; assay: relative viability EC50 (midpoint between 100% and the lowest measured viability); higher = less toxic

| SMILES | cell viability ([1]; 1 nM) | cell viability ([1]; 10 nM) | cell viability ([1]; 100 nM) | cell viability ([1]; 1000 nM) | cell viability ([1]; 10000 nM) | cell viability ([2]; 1 nM) | cell viability ([2]; 10 nM) | cell viability ([2]; 100 nM) | cell viability ([2]; 1000 nM) | cell viability ([2]; 10000 nM) | cell viability ([3]; 1 nM) | cell viability ([3]; 10 nM) | cell viability ([3]; 100 nM) | cell viability ([3]; 1000 nM) | cell viability ([3]; 10000 nM) | drug sensitivity score [4] | drug sensitivity score [5] | drug sensitivity score [6] | relative viability EC50 [7] | relative viability EC50 [8] | relative viability EC50 [9] | cell viability ([10]; 1 nM) | cell viability ([10]; 10 nM) | cell viability ([10]; 100 nM) | cell viability ([10]; 1000 nM) | cell viability ([10]; 10000 nM) | drug sensitivity score [11] | relative viability EC50 [12] | cell viability ([13]; 1 nM) | cell viability ([13]; 10 nM) | cell viability ([13]; 100 nM) | cell viability ([13]; 1000 nM) | cell viability ([13]; 10000 nM) | drug sensitivity score [14] | relative viability EC50 [15] |
| --- | --- | --- | --- | --- | --- | --- | --- | --- | --- | --- | --- | --- | --- | --- | --- | --- | --- | --- | --- | --- | --- | --- | --- | --- | --- | --- | --- | --- | --- | --- | --- | --- | --- | --- | --- |
| O/N=C/c1cc[n+](COC[n+]2ccc(/C=N/O)cc2)cc1 [obidoxime] | 102% | 91.8% | 100% | 84.1% | 106% | 94.5% | 99.4% | 94.4% | 94.7% | 94.6% | 97.2% | 101% | 94.9% | 95.2% | 102% | 0 | 0 | 0 | > 10 µM | > 10 µM | > 10 µM | – | – | – | – | – | – | – | – | – | – | – | – | – | – |
| CN1[C@H]2C[C@H](OC(=O)[C@H](CO)c3ccccc3)C[C@@H]1[C@@H](O)C2 [anisodamine] | 101% | 103% | 105% | 91.8% | 108% | 107% | 108% | 101% | 115% | 99.2% | 98% | 105% | 98.8% | 101% | 97.6% | 0 | 0 | 0 | > 10 µM | > 10 µM | > 10 µM | 104% | 111% | 79.8% | 104% | 102% | 0 | > 10 µM | – | – | – | – | – | – | – |
| CCC(=O)O[C@]1(C(=O)CCl)[C@@H](C)C[C@H]2[C@@H]3CCC4=CC(=O)C=C[C@]4(C)[C@@]3(F)[C@@H](O)C[C@@]21C [clobetasol-propionate] | 91.5% | 96% | 82.2% | 94% | 89.7% | – | – | – | – | – | 95.7% | 95.7% | 93.1% | 90.7% | 91.2% | 0 | – | 0 | > 10 µM | – | > 10 µM | 107% | 105% | 94.5% | 99.4% | 77.8% | 0.8 | > 10 µM | 99.6% | 96.5% | 107% | 93.4% | 95.2% | 0 | > 10 µM |
| O=C(/C=C/c1ccccc1)NC(NC(=S)Nc1cccc2cccnc12)C(Cl)(Cl)Cl (stereo unspecified) [salubrinal] | 99.4% | 100% | 97.6% | 109% | 87.1% | 126% | 102% | 96.7% | 103% | 80.1% | 98.3% | 107% | 101% | 102% | 91.1% | 0 | 0.4 | 0 | > 10 µM | > 10 µM | > 10 µM | 107% | 111% | 99.1% | 101% | 108% | 0 | > 10 µM | – | – | – | – | – | – | – |
| CCCS(=O)(=O)Nc1ccc(F)c(C(=O)c2c[nH]c3ncc(Cl)cc23)c1F [PLX4720] | 93.4% | 89.8% | 100% | 106% | 106% | 96.8% | 96.9% | 93.6% | 91% | 73.3% | 102% | 95.8% | 97.1% | 100% | 101% | 0 | 1.7 | 0 | > 10 µM | – | > 10 µM | 104% | 94.6% | 104% | 90.9% | 49.5% | 4.2 | 1.82 µM | 106% | 100% | 100% | 106% | 82.5% | 0.2 | > 10 µM |
| CC(C)(O)C(=O)N1CCN(c2ccc(C(F)(F)F)c(C3=C(c4c[nH]c5ccccc45)C(=O)NC3=O)c2)CC1 | 102% | 93.2% | 106% | 117% | 46.2% | 92.7% | 95.5% | 95.7% | 105% | 51.1% | 99.6% | 95.8% | 103% | 102% | 35.6% | 2.1 | 2.2 | 3.3 | 4.17 µM | – | 3.35 µM | 101% | 96.5% | 103% | 107% | 7.5% | 4.6 | 3.57 µM | 102% | 97.7% | 96.9% | 104% | 29.5% | 3.6 | 3.46 µM |
| Cc1cn2nc([C@@H]3CCCCN3C(=O)c3cc(Cl)ccc3NS(C)(=O)=O)cc2nc1N1CC[C@H](N)C1 [presatovir] | 102% | 107% | 102% | 94% | 98.5% | 93.8% | 95.2% | 102% | 96.2% | 53.9% | 101% | 97% | 100% | 98.3% | 76.6% | 0 | 3 | 1.1 | > 10 µM | – | > 10 µM | 98.8% | 110% | 104% | 106% | 105% | 0 | > 10 µM | 98.8% | 103% | 94.4% | 96.8% | 102% | 0 | > 10 µM |
| CCCCn1ccc(N2CCC(c3ccccc3)CC2)c(Cl)c1=O | 107% | 96.7% | 87% | 99.3% | 89.8% | 102% | 103% | 87.7% | 111% | 68.4% | 100% | 98.7% | 100% | 98.8% | 99% | 0 | 1 | 0 | > 10 µM | – | > 10 µM | 99.2% | 101% | 86.7% | 108% | 78.9% | 0.4 | > 10 µM | 106% | 106% | 104% | 106% | 97.2% | 0 | > 10 µM |
